Assay results as given in the supplement of paper PMC10307832.

Legend:
Assay in all cases: relative viability (nuclei count vs DMSO), 5 days (fraction); higher = more cells survive
201T = system: 201T
How it was run: (§1)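 Five library-drug doses in √10 steps were combined with a fixed anchor-drug dose, or a single drug was given alone, by pin tool to lung cancer cell lines in 1536-well plates the day after seeding. Nuclei were stained and counted after 5 days. Relative viability is the nuclei count in treated wells over that in vehicle wells, taken as the median of duplicate plates.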

BEN = system: BEN
How it was run: as §1

EMC-BAC-2 = system: EMC-BAC-2
How it was run: as §1

HARA = system: HARA
How it was run: as §1

HCC-44 = system: HCC-44
How it was run: as §1

LCLC-103H = system: LCLC-103H
How it was run: as §1

LOU-NH91 = system: LOU-NH91
How it was run: as §1

NCI-H1395 = system: NCI-H1395
How it was run: as §1

NCI-H1666 = system: NCI-H1666
How it was run: as §1

NCI-H1993 = system: NCI-H1993
How it was run: as §1

NCI-H2009 = system: NCI-H2009
How it was run: as §1

NCI-H2023 = system: NCI-H2023
How it was run: as §1

NCI-H2087 = system: NCI-H2087
How it was run: as §1

NCI-H2126 = system: NCI-H2126
How it was run: as §1

NCI-H2347 = system: NCI-H2347
How it was run: as §1

NCI-H23 = system: NCI-H23
How it was run: as §1

NCI-H3122 = system: NCI-H3122
How it was run: as §1

NCI-H441 = system: NCI-H441
How it was run: as §1

NCI-H522 = system: NCI-H522
How it was run: as §1

NCI-H596 = system: NCI-H596
How it was run: as §1

NCI-H647 = system: NCI-H647
How it was run: as §1

NCI-H650 = system: NCI-H650
How it was run: as §1

NCI-H727 = system: NCI-H727
How it was run: as §1

NCI-H838 = system: NCI-H838
How it was run: as §1

With `Clc1ccc(Nc2nnc(Cc3ccncc3)c3ccccc23)cc1` [Vatalanib] + COc1cccc2cc(-c3nc([C@H]4CC[C@H](C(=O)O)CC4)n4ncnc(N)c34)[nH]c12 [OSI-027] (partner 0.5 µM) the relative viability (201T; first compound 0.04 µM) was 0.759, the relative viability (201T; first compound 0.1265 µM) was 0.698 and the relative viability (201T; first compound 0.4 µM) was 0.889. It also gave a relative viability (201T; first compound 1.265 µM) of 0.657, a relative viability (201T; first compound 4 µM) of 0.666 and a relative viability (BEN; first compound 0.04 µM) of 0.297. The relative viability (BEN; first compound 0.1265 µM) was 0.314, the relative viability (BEN; first compound 0.4 µM) was 0.31 and the relative viability (BEN; first compound 1.265 µM) was 0.295. For the same molecule, the relative viability (BEN; first compound 4 µM) was 0.281, the relative viability (EMC-BAC-2; first compound 0.04 µM) was 0.413 and the relative viability (EMC-BAC-2; first compound 0.1265 µM) was 0.392. For the same molecule, the relative viability (EMC-BAC-2; first compound 0.4 µM) was 0.398, the relative viability (EMC-BAC-2; first compound 1.265 µM) was 0.335 and the relative viability (EMC-BAC-2; first compound 4 µM) was 0.4. The relative viability (HARA; first compound 0.04 µM) was 0.506, the relative viability (HARA; first compound 0.1265 µM) was 0.595 and the relative viability (HARA; first compound 0.4 µM) was 0.71. For the same molecule, the relative viability (HARA; first compound 1.265 µM) was 0.492, the relative viability (HARA; first compound 4 µM) was 0.422 and the relative viability (HCC-44; first compound 0.04 µM) was 0.524. For the same molecule, the relative viability (HCC-44; first compound 0.1265 µM) was 0.652, the relative viability (HCC-44; first compound 0.4 µM) was 0.438 and the relative viability (HCC-44; first compound 1.265 µM) was 0.439. For the same molecule, the relative viability (HCC-44; first compound 4 µM) was 0.355, the relative viability (LCLC-103H; first compound 0.04 µM) was 0.496 and the relative viability (LCLC-103H; first compound 0.1265 µM) was 0.412. For the same molecule, the relative viability (LCLC-103H; first compound 0.4 µM) was 0.55, the relative viability (LCLC-103H; first compound 1.265 µM) was 0.503 and the relative viability (LCLC-103H; first compound 4 µM) was 0.457. It also gave a relative viability (LOU-NH91; first compound 0.04 µM) of 0.712, a relative viability (LOU-NH91; first compound 0.1265 µM) of 0.738 and a relative viability (LOU-NH91; first compound 1.265 µM) of 0.728. It also gave a relative viability (LOU-NH91; first compound 4 µM) of 0.625, a relative viability (NCI-H1395; first compound 0.04 µM) of 0.632 and a relative viability (NCI-H1395; first compound 0.1265 µM) of 0.634. It also gave a relative viability (NCI-H1395; first compound 0.4 µM) of 0.597, a relative viability (NCI-H1395; first compound 1.265 µM) of 0.651 and a relative viability (NCI-H1395; first compound 4 µM) of 0.604. It also gave a relative viability (NCI-H1666; first compound 0.04 µM) of 0.852, a relative viability (NCI-H1666; first compound 0.1265 µM) of 0.815 and a relative viability (NCI-H1666; first compound 0.4 µM) of 0.883. The relative viability (NCI-H1666; first compound 1.265 µM) was 0.802, the relative viability (NCI-H1666; first compound 4 µM) was 0.82 and the relative viability (NCI-H1993; first compound 0.04 µM) was 0.55. The relative viability (NCI-H1993; first compound 0.1265 µM) was 0.558, the relative viability (NCI-H1993; first compound 0.4 µM) was 0.554 and the relative viability (NCI-H1993; first compound 1.265 µM) was 0.594. It also gave a relative viability (NCI-H1993; first compound 4 µM) of 0.58, a relative viability (NCI-H2009; first compound 0.04 µM) of 0.73 and a relative viability (NCI-H2009; first compound 0.1265 µM) of 0.561. The relative viability (NCI-H2009; first compound 0.4 µM) was 0.647, the relative viability (NCI-H2009; first compound 1.265 µM) was 0.58 and the relative viability (NCI-H2009; first compound 4 µM) was 0.626. The relative viability (NCI-H2023; first compound 0.04 µM) was 0.376, the relative viability (NCI-H2023; first compound 0.1265 µM) was 0.366 and the relative viability (NCI-H2023; first compound 0.4 µM) was 0.419. The relative viability (NCI-H2023; first compound 1.265 µM) was 0.342, the relative viability (NCI-H2023; first compound 4 µM) was 0.343 and the relative viability (NCI-H2087; first compound 0.04 µM) was 0.673. The relative viability (NCI-H2087; first compound 0.1265 µM) was 0.468, the relative viability (NCI-H2087; first compound 0.4 µM) was 0.647 and the relative viability (NCI-H2087; first compound 1.265 µM) was 0.548. For the same molecule, the relative viability (NCI-H2087; first compound 4 µM) was 0.564, the relative viability (NCI-H2126; first compound 0.04 µM) was 0.692 and the relative viability (NCI-H2126; first compound 0.1265 µM) was 0.693. The relative viability (NCI-H2126; first compound 0.4 µM) was 0.797, the relative viability (NCI-H2126; first compound 1.265 µM) was 0.62 and the relative viability (NCI-H2126; first compound 4 µM) was 0.625. For the same molecule, the relative viability (NCI-H2347; first compound 0.04 µM) was 0.397, the relative viability (NCI-H2347; first compound 0.1265 µM) was 0.391 and the relative viability (NCI-H2347; first compound 0.4 µM) was 0.488. For the same molecule, the relative viability (NCI-H2347; first compound 1.265 µM) was 0.464, the relative viability (NCI-H2347; first compound 4 µM) was 0.364 and the relative viability (NCI-H23; first compound 0.04 µM) was 0.634. It also gave a relative viability (NCI-H23; first compound 0.1265 µM) of 0.613, a relative viability (NCI-H23; first compound 0.4 µM) of 0.779 and a relative viability (NCI-H23; first compound 1.265 µM) of 0.517. For the same molecule, the relative viability (NCI-H23; first compound 4 µM) was 0.387, the relative viability (NCI-H3122; first compound 0.04 µM) was 1.13 and the relative viability (NCI-H3122; first compound 0.1265 µM) was 0.982. For the same molecule, the relative viability (NCI-H3122; first compound 1.265 µM) was 0.934, the relative viability (NCI-H3122; first compound 4 µM) was 0.848 and the relative viability (NCI-H441; first compound 0.04 µM) was 0.581. The relative viability (NCI-H441; first compound 0.1265 µM) was 0.504, the relative viability (NCI-H441; first compound 0.4 µM) was 0.597 and the relative viability (NCI-H441; first compound 1.265 µM) was 0.658. It also gave a relative viability (NCI-H441; first compound 4 µM) of 0.713, a relative viability (NCI-H522; first compound 0.04 µM) of 0.703 and a relative viability (NCI-H522; first compound 0.1265 µM) of 0.677. The relative viability (NCI-H522; first compound 0.4 µM) was 0.73, the relative viability (NCI-H522; first compound 1.265 µM) was 0.714 and the relative viability (NCI-H522; first compound 4 µM) was 0.796. The relative viability (NCI-H596; first compound 0.04 µM) was 0.838, the relative viability (NCI-H596; first compound 0.1265 µM) was 0.651 and the relative viability (NCI-H596; first compound 0.4 µM) was 0.777. The relative viability (NCI-H596; first compound 1.265 µM) was 0.756, the relative viability (NCI-H596; first compound 4 µM) was 0.5 and the relative viability (NCI-H647; first compound 0.04 µM) was 0.654. For the same molecule, the relative viability (NCI-H647; first compound 0.1265 µM) was 0.597, the relative viability (NCI-H647; first compound 0.4 µM) was 0.634 and the relative viability (NCI-H647; first compound 1.265 µM) was 0.568. The relative viability (NCI-H647; first compound 4 µM) was 0.671, the relative viability (NCI-H650; first compound 0.04 µM) was 0.627 and the relative viability (NCI-H650; first compound 0.1265 µM) was 0.49. For the same molecule, the relative viability (NCI-H650; first compound 1.265 µM) was 0.491, the relative viability (NCI-H650; first compound 4 µM) was 0.523 and the relative viability (NCI-H727; first compound 0.04 µM) was 0.562. For the same molecule, the relative viability (NCI-H727; first compound 0.1265 µM) was 0.545, the relative viability (NCI-H727; first compound 0.4 µM) was 0.653 and the relative viability (NCI-H727; first compound 1.265 µM) was 0.562. The relative viability (NCI-H727; first compound 4 µM) was 0.45, the relative viability (NCI-H838; first compound 0.04 µM) was 0.428 and the relative viability (NCI-H838; first compound 0.1265 µM) was 0.384. It also gave a relative viability (NCI-H838; first compound 0.4 µM) of 0.379, a relative viability (NCI-H838; first compound 1.265 µM) of 0.404 and a relative viability (NCI-H838; first compound 4 µM) of 0.443.
